These results are taken from article PMC6753678, “Fueling Open Innovation for Malaria Transmission-Blocking Drugs: Hundreds of Molecules Targeting Early Parasite Mosquito Stages” (Frontiers in Microbiology, 2019).

Read-outs that look alike come from different tables or passages of the source.

What is called IC50 is the concentration that gives 50% inhibition.

For data set [1], the system named is HepG2 cells. The data set is described as follows: HepG2 cytotoxicity assay. To be noted: HepG2 cytotoxicity unified across the three screens. The method, boiled down:
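Cells at 2,500 per well in MEM with 10% fetal bovine serum and 1% NEAA were exposed to test compounds for 48 h at 37°C, 5% CO2. Viability was read by fluorescence, with percent inhibition calculated against 50 μM doxorubicin (positive) and DMSO (negative) controls.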

Data set [2] deals with P. falciparum late stage (stages IV-V) gametocytes. On the set-up: method as in Almela et al 2016. The note with it: TCAMS screen comparison; ref Almela et al 2016; read-out: Pf GCT ATP IC50; cited from earlier work.
Data set [3] deals with P. falciparum female gametocytes. Also noted: method as in Miguel-Blanco et al 2017. The note with it: TCAMS screen comparison; ref Miguel-Blanco et al 2017; read-out: Pf FGAA IC50; cited from earlier work.
Data set [4] has as its system HepG2 cells. To be noted: cited from earlier work.
Data set [5] concerns P. falciparum female gametocytes. The data set is described as follows: P. falciparum female gametogenesis assay (Pf FGAA). The note with it: 1: YES; 0: NO.
The test system of data set [6] is P. falciparum late stage (stages IV-V) gametocytes. The data set can be described thus: P. falciparum late stage gametocyte ATP depletion assay (Pf GC-ATP). To be noted: 1: YES; 0: NO.
[7] abbreviates: value reported with the Pf FGAA screen, ref Miguel-Blanco et al 2017.
Setting [8] is: value reported with the Pf GCT ATP screen, ref Almela et al 2016.

For the molecule `COc1cc2nc(N3CCC(CNC(=O)c4ccc(-c5ccc(-c6noc(C)n6)cc5)cc4)CC3)nc(N)c2cc1OC` [TCMDC-138754], the “Unified cytotox” value with HepG2 cells [1] is reported as 4.61 µM. Also, the half-inhibitory concentration (IC50) was 110 nM in data set [2] and 1050 nM in data set [3]. The “HepG2 cytoxicity” value was 4.90 µM in the data set on HepG2 cells [4] (setting [7]) and 4.33 µM with HepG2 cells [4] (setting [8]). Moreover, the “Is compound selective in assay? Pf FGAA active?” value in data set [5] is listed as 0 (0: NO). Further, the “Is compound selective in assay? Pf GC-ATP active?” value in data set [6] is 1 (1: YES).

Turning to `C=CCOc1ccc2ccccc2c1CNCCCCCCNCc1c(OCC=C)ccc2ccccc12.CS(=O)(=O)O` [TCMDC-137340], the “Unified cytotox” value in the data set with HepG2 cells [1] is listed as 1.93 µM. For the same molecule, the half-maximal inhibitory concentration (IC50) in data set [2] was 250 nM; in data set [3], 700 nM. Besides, the “HepG2 cytoxicity” value in the data set with HepG2 cells [4] (setting [7]) is on record as 1.93 µM; with HepG2 cells [4] (setting [8]), below 1.56 µM. Moreover, the “Is compound selective in assay? Pf FGAA active?” value in data set [5] was 0 (0: NO). Further, in data set [6], the “Is compound selective in assay? Pf GC-ATP active?” value is on record as 0 (0: NO).

In the case of `CN(C)CCN(C)Cc1cccc(-c2ccc3c(Nc4ccc(F)cc4Cl)ccnc3c2)c1` [TCMDC-138416], the “Unified cytotox” value in the data set on HepG2 cells [1] amounted to 4.85 µM. Further, the IC50 in data set [2] was 480 nM; in data set [3], 7020 nM. In addition, the “HepG2 cytoxicity” value in the data set on HepG2 cells [4] (setting [7]) is 6.10 µM; in the data set with HepG2 cells [4] (setting [8]), 3.6 µM. Further, in data set [5], the “Is compound selective in assay? Pf FGAA active?” value is 0 (0: NO). The “Is compound selective in assay? Pf GC-ATP active?” value in data set [6] is listed as 1 (1: YES).

Take `C#CCOc1ccc2ccccc2c1CNCCCCCCNCc1c(OCC#C)ccc2ccccc12.CS(=O)(=O)O` [TCMDC-137838]: the “Unified cytotox” value with HepG2 cells [1] came out at 3.05 µM. For the same molecule, the IC50 was 500 nM in data set [2] and 1050 nM in data set [3]. Besides, the “HepG2 cytoxicity” value in the data set on HepG2 cells [4] (setting [7]) is reported as 2.92 µM; in the data set on HepG2 cells [4] (setting [8]), 3.19 µM. Besides, the “Is compound selective in assay? Pf FGAA active?” value in data set [5] is 0 (0: NO). In data set [6], the “Is compound selective in assay? Pf GC-ATP active?” value was 0 (0: NO).

With `C=CCN(C(=O)c1ccc(Cl)c([N+](=O)[O-])c1)c1nc(-c2ccccc2)cs1` [TCMDC-124436], the “Unified cytotox” value in the data set on HepG2 cells [1] is 100.00 µM. The IC50 is 110 nM in data set [2] and 130 nM in data set [3]. In addition, the “HepG2 cytoxicity” value in the data set with HepG2 cells [4] (setting [7]) is on record as above 100 µM; in the data set with HepG2 cells [4] (setting [8]), above 25 µM. Besides, in data set [5], the “Is compound selective in assay? Pf FGAA active?” value is listed as 1 (1: YES). In data set [6], the “Is compound selective in assay? Pf GC-ATP active?” value is reported as 1 (1: YES).

Regarding `CN(C)CCCOc1ccc(CN2CCC(c3c[nH]c4ccc(NCC5CCCCC5)cc34)CC2)cc1.O=C(O)C(F)(F)F` [TCMDC-140737], in the data set on HepG2 cells [1], the “Unified cytotox” value turned out to be 6.14 µM. For the same molecule, the 50% inhibitory concentration (IC50) was 500 nM in data set [2] and 560 nM in data set [3]. Further, the “HepG2 cytoxicity” value is 5.48 µM with HepG2 cells [4] (setting [7]) and 6.8 µM in the data set on HepG2 cells [4] (setting [8]). The “Is compound selective in assay? Pf FGAA active?” value in data set [5] was 1 (1: YES). Moreover, the “Is compound selective in assay? Pf GC-ATP active?” value in data set [6] was 1 (1: YES).

For the molecule `CC(CCCCCC(=O)Nc1ccc(CC(C)NCCc2cccc(Cl)c2)cc1)NCCc1cccc(Cl)c1` (stereo not shown) [TCMDC-139800], the “Unified cytotox” value in the data set on HepG2 cells [1] came out at 2.87 µM. Moreover, the IC50 in data set [2] is 430 nM; in data set [3] it was 1390 nM. The “HepG2 cytoxicity” value is listed as 2.55 µM with HepG2 cells [4] (setting [7]) and 3.2 µM in the data set on HepG2 cells [4] (setting [8]). Moreover, in data set [5], the “Is compound selective in assay? Pf FGAA active?” value is given as 0 (0: NO). In addition, the “Is compound selective in assay? Pf GC-ATP active?” value in data set [6] is 0 (0: NO).

For `Cc1ccc(C(=O)Nc2ccc(Nc3ccnc4cc(-c5ccccn5)ccc34)cc2O)cc1.Cl` [TCMDC-138205], in the data set with HepG2 cells [1], the “Unified cytotox” value is 2.19 µM. Moreover, the IC50 in data set [2] was 480 nM; in data set [3], 540 nM. Also, the “HepG2 cytoxicity” value in the data set on HepG2 cells [4] (setting [7]) is reported as 1.27 µM; in the data set with HepG2 cells [4] (setting [8]), 3.11 µM. For the same molecule, in data set [5], the “Is compound selective in assay? Pf FGAA active?” value was 0 (0: NO). In addition, the “Is compound selective in assay? Pf GC-ATP active?” value in data set [6] is listed as 0 (0: NO).

`c1cc(Nc2nc(-c3ccc(-c4csc(Nc5ccncc5)n4)cc3)cs2)ccn1` [TCMDC-139725]: the “Unified cytotox” value in the data set with HepG2 cells [1] is 9.78 µM. Moreover, the values for the IC50 in data set [2] and in data set [3] were 260 nM and 30 nM, respectively. Moreover, the “HepG2 cytoxicity” value in the data set on HepG2 cells [4] (setting [7]) is given as 2.26 µM; in the data set with HepG2 cells [4] (setting [8]), 17.3 µM. In data set [5], the “Is compound selective in assay? Pf FGAA active?” value is listed as 1 (1: YES). The “Is compound selective in assay? Pf GC-ATP active?” value in data set [6] was 1 (1: YES).

In the case of `CC(C)(C)c1ccc(CN2CCC(CNC(=O)c3cc(-c4ccccc4F)cs3)C2)cc1.O=C(O)C(F)(F)F` (stereo not shown) [TCMDC-134443], the “Unified cytotox” value in the data set on HepG2 cells [1] amounted to 8.35 µM. For the same molecule, the half-inhibitory concentration (IC50) in data set [2] was 340 nM; in data set [3] it was 830 nM. For the same molecule, the “HepG2 cytoxicity” value is reported as 9.30 µM in the data set with HepG2 cells [4] (setting [7]) and 7.4 µM with HepG2 cells [4] (setting [8]). Moreover, the “Is compound selective in assay? Pf FGAA active?” value in data set [5] is 1 (1: YES). In addition, the “Is compound selective in assay? Pf GC-ATP active?” value in data set [6] was 1 (1: YES).

On to `Cl.c1ccc2c(C3CCN(CCCCOc4ccc5c(c4)CCN(CC4CC4)CC5)CC3)c[nH]c2c1` [TCMDC-136244], for which the “Unified cytotox” value in the data set with HepG2 cells [1] was 5.98 µM. The IC50 in data set [2] is 710 nM; in data set [3] it was 1150 nM. For the same molecule, the “HepG2 cytoxicity” value in the data set on HepG2 cells [4] (setting [7]) was 5.15 µM; in the data set on HepG2 cells [4] (setting [8]), 6.81 µM. For the same molecule, the “Is compound selective in assay? Pf FGAA active?” value in data set [5] is listed as 0 (0: NO). Moreover, the “Is compound selective in assay? Pf GC-ATP active?” value in data set [6] is reported as 0 (0: NO).

As to `CC(C)Oc1ccc2ccccc2c1CNCCCCCCNCc1c(OC(C)C)ccc2ccccc12.CS(=O)(=O)O` [TCMDC-137965], the “Unified cytotox” value in the data set with HepG2 cells [1] is recorded as 2.14 µM. Besides, the IC50 in data set [2] was 140 nM; in data set [3], 950 nM. In addition, the “HepG2 cytoxicity” value in the data set on HepG2 cells [4] (setting [7]) is 1.91 µM; in the data set with HepG2 cells [4] (setting [8]), 2.38 µM. The “Is compound selective in assay? Pf FGAA active?” value in data set [5] is on record as 0 (0: NO). Besides, the “Is compound selective in assay? Pf GC-ATP active?” value in data set [6] is recorded as 1 (1: YES).

As for `COc1ccc2ccc(OC)c(CNCCCCCCNCc3c(OC)ccc4ccc(OC)cc34)c2c1.CS(=O)(=O)O` [TCMDC-137796], the “Unified cytotox” value with HepG2 cells [1] amounted to 3.36 µM. Also, the IC50 in data set [2] is 290 nM; in data set [3], 1210 nM. Further, the “HepG2 cytoxicity” value with HepG2 cells [4] (setting [7]) is given as 3.31 µM; in the data set on HepG2 cells [4] (setting [8]), 3.4 µM. For the same molecule, the “Is compound selective in assay? Pf FGAA active?” value in data set [5] is given as 0 (0: NO). For the same molecule, in data set [6], the “Is compound selective in assay? Pf GC-ATP active?” value is recorded as 1 (1: YES).

On to `FC(F)(F)c1ccc2[nH]c(-c3ccc(-c4cccc(CN5CCC(CCN6CCCCC6)CC5)c4)cc3)nc2c1.O=C(O)C(F)(F)F` [TCMDC-133941], for which the “Unified cytotox” value with HepG2 cells [1] stood at 3.93 µM. The values for the 50% inhibitory concentration (IC50) in data set [2] and in data set [3] were 510 nM and 1260 nM, respectively. For the same molecule, the “HepG2 cytoxicity” value is 4.45 µM in the data set with HepG2 cells [4] (setting [7]) and 3.4 µM in the data set on HepG2 cells [4] (setting [8]). Also, in data set [5], the “Is compound selective in assay? Pf FGAA active?” value is reported as 0 (0: NO). Further, in data set [6], the “Is compound selective in assay? Pf GC-ATP active?” value is on record as 0 (0: NO).

Take `C=C[C@H]1CN(CCCCCCC)CC[C@H]1CCNc1ccnc2ccc(OC)cc12` [TCMDC-139204]: the “Unified cytotox” value in the data set on HepG2 cells [1] worked out at 2.82 µM. In addition, the figures for the IC50 in data set [2] and in data set [3] were 1080 nM and 1800 nM, respectively. Moreover, the results for the “HepG2 cytoxicity” value in the data set on HepG2 cells [4] (setting [7]) and in the data set on HepG2 cells [4] (setting [8]) were 2.24 µM and 3.4 µM, respectively. Further, in data set [5], the “Is compound selective in assay? Pf FGAA active?” value is listed as 0 (0: NO). Besides, the “Is compound selective in assay? Pf GC-ATP active?” value in data set [6] is reported as 0 (0: NO).

Turning to `N=C(NCC1CC1c1ccccc1)c1cccc(C(=N)NCC2CC2c2ccccc2)n1` (stereo not shown) [TCMDC-137456], in the data set with HepG2 cells [1], the “Unified cytotox” value is reported as 6.50 µM. For the same molecule, the IC50 in data set [2] was 450 nM; in data set [3] it was 1890 nM. The “HepG2 cytoxicity” value is 6.21 µM with HepG2 cells [4] (setting [7]) and 6.8 µM in the data set with HepG2 cells [4] (setting [8]). In data set [5], the “Is compound selective in assay? Pf FGAA active?” value was 0 (0: NO). Moreover, the “Is compound selective in assay? Pf GC-ATP active?” value in data set [6] is listed as 1 (1: YES).
